Results taken from patent publication US20130210907A1, “METHOD FOR PREVENTING OR TREATING ENTEROCHROMAFFIN CELL HYPERPLASIA-RELATED DISEASES BY QUERCETIN ADMINISTRATION” (HONG KONG BAPTIST UNIVERSITY, priority 2012, published 2013).

Tests used:
TPH = experiment: Colonic TPH expression by Western blot; format: in vivo, rat
Procedure: The colon tissues are homogenized and sonicated on ice for protein extraction. After determination of protein content, the samples protein are denatured at 100° C. for 5 min. Proteins are separated by 10% SDS-PAGE and transferred to PVDF membranes (Bio-Rad, CA). After blocking with 5% nonfat milk, the membranes are incubated overnight at 4° C. with rabbit anti-TPH antibody (1:1000, Santa Cruz, Calif.), then incubated with the appropriate secondary antibodies for 1 h at room temperature. The immunoreaction is detected using ECL Western blotting kit (ECL, Amersham, UK). Bands are visualized on Biomax X-ray film, and optical density of each band is semi-quantified by computer software (Image J.NIH). All detected protein bands are normalized to β-actin levels.

normal rats = experiment: Colonic EC cell density in normal rats; format: in vivo, rat; conditions: 10 mg/kg i.g., 14 days
Procedure: Tissue sections (5-μm thick) are deparaffinized and rehydrated for silver staining. Briefly, sections are incubated with 5% ammoniacal silver solution for 4 h at room temperature, then 2 h in 56° C. and subsequently 12 h at room temperature in a dark humidified chamber. After rinsing with water, 5% sodium hyposulfite is added and the tissue sections are incubated for 5 min at room temperature. The brown to black silver precipitate in the cytoplasm of EC cells represents as a positive reaction. A researcher blinded to treatment counted 5 random fields at 200× magnifications for each section, and the number of EC cells per mm^2 of mucosa is quantified using Image J NIH software.
To identify whether the effects of Quercerin in PI-IBS rats are specific, pain threshold pressure, colonic EC cell number and 5-HT content are further evaluated in normal rats treated with Quercetin. Briefly, Quercetin at the dose of 10 mg/kg is administered to normal rats orally for 14 days. After the final drug administration, pain threshold pressure, colonic EC cell density and 5-HT content are evaluated and the methods used here are as same as that shown in above experiments.

QGP-1 cells [1] = experiment: Cell viability (MTT assay); format: cell-based; conditions: Homo sapiens
Procedure: To investigate the underlying mechanisms of Quercein on EC cell hyperplasia, a EC cell model, QGP-1 cell line is used as EC cell model. Human pancreatic carcinoma QGP-1 cells (JCRB0183, HSRRB, Japan) are cultured in RPMI 1640 supplemented with 10% fetal bovine serum, 100 IU/ml penicillin, and 100 μg/ml streptomycin in a humidified atmosphere of 95% air and 5% CO2 at 37° C. Cells are passaged using 0.025% trypsin and 0.01% EDTA. Cells are trypsinized and seeded in 96-well culture dishes at a density of 5,000-8,000 cells/well and cultured for 24 h or 48 h in the presence of Quercetin (0-100 μM, 0.01% DMSO).
3-(4,5-dimethylthiazol-2yl-)-2,5-diphenyl tetrazolium bromide (MTT) is used to evaluate cell viability. In this assay, cells are seeded in 96-well dishes and cultured for […] in the presence of Quercetin. Subsequently, the culture medium is replaced with 100 μl/well fresh medium containing 0.5 mg/ml MTT, and the cells are further incubated for 4 h at 37° C. The reaction is stopped by adding 100 μl/well 10% SDS in 0.1 M HCl, the absorbance of the plates is read at 570 nm The percent of cell survival is calculated by comparing the average absorbance of the Quercetin treated cells with the corresponding absorbance of the DMSO treated cells. All doses are tested in triplicates and repeated for at least three times.

p21 = experiment: Western blot of p21 in QGP-1 cells; format: cell-based, human; conditions: QGP-1, 50-100 nM (so in the source), 24 h
Procedure: After drug treatment, the cells are lysed and centrifuged to collect the protein extract After determination of protein content, the samples protein are denatured at 100° C. for 5 min Proteins are separated by 10-12% SDS-PAGE and transferred to PVDF membranes (Bio-Rad, CA). After blocking with 5% nonfat milk for 1 h at room temperature, the membranes are incubated overnight at 4° C. with primary antibodies (mouse anti-cyclin BE 1:500, Abcam; goat anti-p-Cdc2:1:500, Santa Cruz; mouse anti-p21: 1:500, BD Bioscience). After washing three times in TBST, the membranes where incubated with the appropriate secondary antibodies (1:2000, Invitrogen) for 1 h at room temperature. The immunoreaction is detected using ECL Western blotting kit (ECL, Amersham, UK). Bands are visualized on Biomax X-ray film, and optical density of each band is semi-quantified by software (Image J.NIH). In order to adjust for any variations in loading, all detected protein bands are normalized to β-actin levels.

QGP-1 cells [2] = experiment: Apoptosis by DAPI staining, fluorescence microscopy; format: cell-based, human; conditions: QGP-1, 25~100 μM, 24 h
Procedure: Cells are seeded on coverslips in 24-well plate at the density of 100,000 cells per well and cultured overnight. After exposure to DMSO (control) or different concentration of Quercetin for 24 h, cells are washed three times and fixed with 4% paraformaldehyde for 20 min at room temperature. After washing in PBS, cells are permeabilized in 0.2% tritonX-100 for 10 min and stained with DAPI (20 μg/ml) for 10 min at room temperature in darkness. Slides are examined with a laser scanning microscope (Olympus Fluoview FV1000) 40× magnification. Three hundred cells are counted per slide randomly as previously reported in Ramage L, Jones A C, Whelan C J. Induction of apoptosis with tobacco smoke and related products in A549 lung epithelial cells in vitro. J Inflamm (Lond). 2006; 3:3. Apoptosis cells condense or fragment nuclear chromatin with or without apoptotic bodies, while normal cells have typical morphology with smooth nuclear and membrane.

O=c1c(O)c(-c2ccc(O)c(O)c2)oc2cc(O)cc(O)c12 [Quercetin, 2-(3,4-dihydroxyphenyl)-3,5,7-trihydroxy-4H-chromen-4-one]
TPH/actin ratio (TPH; PI-IBS rats, colon, 10 mg/kg i.g.): 0.62 ± 0.11 | Reduction of colonic TPH expression in PI-IBS rats (TPH; median dose, 10 mg/kg, p<0.05): ~22.8% | EC cell density (normal rats): 91 ± 10 Number/mm^2 | cytotoxicity at 100 µM (QGP-1 cells [1]; QGP-1, 24 h, at about 100 μM, read-out: Reduction of cell viability in comparison with the control): ~50% | IC50 (QGP-1 cells [1]; QGP-1, 48 h incubation): ~50 µM | Protein level of p21 (p21): significantly increased | Apoptosis rate (QGP-1 cells [2]): concentration-dependently increases
